Source: ChEMBL document CHEMBL3244292, “Imidazo[4,5-f]quinolines. 2. A series of 9-(substituted amino)imidazo[4,5-f]quinolines as antitapeworm agents” (1977)
Calls of active or inactive are those of the source. The rule behind the calls is not given here.

How the values were obtained:
Assay type in all cases: functional
Rodentolepis nana [1] = assay: Anthelmintic activity against Hymenolepis nana infected in mouse assessed as reduction in worm burden at 100 mg/kg administered bid for 3 days relative to control; parameters: scale not given: the % may be the effect or the level left
Rodentolepis nana [2] = assay: Anthelmintic activity against Hymenolepis nana infected in mouse assessed as reduction in worm burden at 50 mg/kg administered bid for 3 days relative to control; parameters: scale not given: the % may be the effect or the level left
Rodentolepis nana [3] = assay: Anthelmintic activity against Hymenolepis nana infected in mouse assessed as reduction in worm burden at 25 mg/kg administered bid for 3 days relative to control
Rodentolepis nana [4] = assay: Anthelmintic activity against Hymenolepis nana infected in mouse assessed as reduction in worm burden at 300 mg/kg administered bid for 3 days relative to control; parameters: scale not given: the % may be the effect or the level left

## CCOc1ccc(OC)cc1Nc1cc(C)nc2ccc3nc[nH]c3c12
Rodentolepis nana [1]
  Activity: 100%
Rodentolepis nana [2]
  Activity: 76%
Rodentolepis nana [3]
  Activity: inactive

## Cc1cc(Nc2ccc(Oc3ccccc3)cc2)c2c(ccc3nc[nH]c32)n1
Rodentolepis nana [1]
  Activity: 100%
Rodentolepis nana [2]
  Activity: 66%
Rodentolepis nana [3]
  Activity: inactive

## Cc1cc(Nc2ccc(OCc3ccccc3)cc2)c2c(ccc3nc[nH]c32)n1
Rodentolepis nana [1]
  Activity: 81%
Rodentolepis nana [2]
  Activity: 64%

## Cc1cc(Nc2ccc3ccccc3c2)c2c(ccc3nc[nH]c32)n1
Rodentolepis nana [1]
  Activity: 72%
Rodentolepis nana [2]
  Activity: inactive

## CCOc1ccc(OC)c(Nc2cc(C)nc3ccc4nc[nH]c4c23)c1
Rodentolepis nana [1]
  Activity: 100%
Rodentolepis nana [2]
  Activity: 89%
Rodentolepis nana [3]
  Activity: inactive

## COc1ccccc1Nc1cc(C)nc2ccc3nc[nH]c3c12
Rodentolepis nana [1]
  Activity: 66%
Rodentolepis nana [2]
  Activity: inactive

## COc1ccc(Nc2cc(C)nc3ccc4nc[nH]c4c23)cc1
Rodentolepis nana [1]
  Activity: 64%
Rodentolepis nana [2]
  Activity: inactive

## Cc1cc(Nc2ccc(C)c([N+](=O)[O-])c2)c2c(ccc3nc[nH]c32)n1
Rodentolepis nana [4]
  Activity: 83%
Rodentolepis nana [1]
  Activity: inactive

## COc1ccc(Nc2cc(C)nc3ccc4nc(-c5ccccc5)[nH]c4c23)cc1
Rodentolepis nana [1]
  Activity: 94%
Rodentolepis nana [2]
  Activity: inactive

## Cc1cc(Nc2ccc(F)c(Cl)c2)c2c(ccc3nc[nH]c32)n1
Rodentolepis nana [1]
  Activity: 82%
Rodentolepis nana [2]
  Activity: inactive

## Cc1cc(Nc2ccc(I)cc2)c2c(ccc3nc[nH]c32)n1
Rodentolepis nana [1]
  Activity: 84%
Rodentolepis nana [2]
  Activity: inactive

## Cc1cc(Nc2ccc(N(C)C)c(Cl)c2)c2c(ccc3nc[nH]c32)n1
Rodentolepis nana [1]
  Activity: 71%
Rodentolepis nana [2]
  Activity: inactive

## Cc1cc(Nc2cccc(N(C)C)c2)c2c(ccc3nc[nH]c32)n1
Rodentolepis nana [1]
  Activity: 100%
Rodentolepis nana [2]
  Activity: 87%
Rodentolepis nana [3]
  Activity: inactive

## Cc1cc(Nc2ccc(Br)cc2)c2c(ccc3nc[nH]c32)n1
Rodentolepis nana [1]
  Activity: 61%
Rodentolepis nana [2]
  Activity: inactive

## Cc1cc(Nc2ccc3c(c2)OCO3)c2c(ccc3nc[nH]c32)n1
Rodentolepis nana [4]
  Activity: 100%
Rodentolepis nana [1]
  Activity: inactive

## COc1ccc(Nc2cc(C)nc3ccc4nc(C)[nH]c4c23)cc1
Rodentolepis nana [4]
  Activity: 100%
Rodentolepis nana [1]
  Activity: inactive

## CCCCOc1ccc(Nc2cc(C)nc3ccc4[nH]cnc4c23)cc1
Rodentolepis nana [4]
  Activity: 100%
Rodentolepis nana [1]
  Activity: inactive

## Cc1cc(Nc2cccc3ccccc23)c2c(ccc3nc[nH]c32)n1
Rodentolepis nana [1]
  Activity: 100%
Rodentolepis nana [2]
  Activity: inactive

## Cc1cc(Nc2cccc(Nc3ccccc3)c2)c2c(ccc3nc[nH]c32)n1
Rodentolepis nana [4]
  Activity: 81%
Rodentolepis nana [1]
  Activity: inactive

## Cc1cc(Nc2ccc(N3CCN(C)CC3)c(Cl)c2)c2c(ccc3nc[nH]c32)n1
Rodentolepis nana [4]
  Activity: 100%
Rodentolepis nana [1]
  Activity: inactive

## COc1ccc(Nc2cccc(Nc3cc(C)nc4ccc5nc[nH]c5c34)c2)cn1
Rodentolepis nana [1]
  Activity: 100%
Rodentolepis nana [2]
  Activity: 94%
Rodentolepis nana [3]
  Activity: inactive

## CCOc1ccc(Nc2cc(C)nc3ccc4nc[nH]c4c23)cc1
Rodentolepis nana [1]
  Activity: 100%
Rodentolepis nana [2]
  Activity: inactive

## CCOc1ccc(Nc2cc(C)nc3ccc4nc[nH]c4c23)cc1OCC
Rodentolepis nana [1]
  Activity: 100%
Rodentolepis nana [2]
  Activity: 84%
Rodentolepis nana [3]
  Activity: inactive

## Cc1cc(Nc2ccc(C)c(Cl)c2)c2c(ccc3nc[nH]c32)n1
Rodentolepis nana [1]
  Activity: 94%
Rodentolepis nana [2]
  Activity: 90%
Rodentolepis nana [3]
  Activity: inactive

## Cc1ccc(Nc2cc(C)nc3ccc4nc[nH]c4c23)cc1
Rodentolepis nana [4]
  Activity: 100%
Rodentolepis nana [1]
  Activity: inactive

## Cc1cc(Nc2ccc(Cl)cc2C)c2c(ccc3nc[nH]c32)n1
Rodentolepis nana [1]
  Activity: 100%
Rodentolepis nana [2]
  Activity: inactive

## Cc1cc(Nc2cccc(Nc3ccc(N4CCN(C)CC4)nc3)c2)c2c(ccc3nc[nH]c32)n1
Rodentolepis nana [4]
  Activity: 64%
Rodentolepis nana [1]
  Activity: inactive

## CCOc1cc(Nc2cc(C)nc3ccc4nc[nH]c4c23)c(OCC)cc1Cl
Rodentolepis nana [1]
  Activity: 100%
Rodentolepis nana [2]
  Activity: 100%
Rodentolepis nana [3]
  Activity: inactive

## COc1cc(Cl)ccc1Nc1cc(C)nc2ccc3nc[nH]c3c12
Rodentolepis nana [1]
  Activity: 52%
Rodentolepis nana [2]
  Activity: inactive

## CCN(CC)c1ccc(Nc2cc(C)nc3ccc4nc[nH]c4c23)cc1
Rodentolepis nana [1]
  Activity: 79%
Rodentolepis nana [2]
  Activity: inactive

## CCCCOc1ccc(Nc2cc(C)nc3ccc4nc[nH]c4c23)cc1OCCCC
Rodentolepis nana [1]
  Activity: 100%
Rodentolepis nana [2]
  Activity: 95%
Rodentolepis nana [3]
  Activity: inactive

## Cc1cc(Nc2ccc(N3CCN(C)CC3)cc2)c2c(ccc3nc[nH]c32)n1
Rodentolepis nana [4]
  Activity: 80%
Rodentolepis nana [1]
  Activity: inactive

## COc1cc(OC)c(Nc2cc(C)nc3ccc4nc[nH]c4c23)cc1Cl
Rodentolepis nana [1]
  Activity: 85%
Rodentolepis nana [2]
  Activity: 82%
Rodentolepis nana [3]
  Activity: inactive

## COc1cccc(Nc2cc(C)nc3ccc4[nH]cnc4c23)c1
Rodentolepis nana [1]
  Activity: 73%
Rodentolepis nana [2]
  Activity: inactive

## Cc1ccc(Cl)c(Nc2cc(C)nc3ccc4nc[nH]c4c23)c1
Rodentolepis nana [4]
  Activity: 98%
Rodentolepis nana [1]
  Activity: inactive

## Cc1cc(Nc2ccc(-c3ccccc3)cc2)c2c(ccc3nc[nH]c32)n1
Rodentolepis nana [1]
  Activity: 100%
Rodentolepis nana [2]
  Activity: 94%
Rodentolepis nana [3]
  Activity: inactive

## CCCCc1ccc(Nc2cc(-c3ccccc3)nc3ccc4nc[nH]c4c23)cc1
Rodentolepis nana [4]
  Activity: 69%
Rodentolepis nana [1]
  Activity: inactive

## Cc1cc(Nc2ccc(OC(C)C)c(OC(C)C)c2)c2c(ccc3nc[nH]c32)n1
Rodentolepis nana [1]
  Activity: 100%
Rodentolepis nana [2]
  Activity: 94%
Rodentolepis nana [3]
  Activity: inactive

## CSc1ccc(Nc2cc(C)nc3ccc4nc[nH]c4c23)cc1
Rodentolepis nana [1]
  Activity: 100%
Rodentolepis nana [2]
  Activity: 62%

## Cc1cc(Nc2ccc(C(C)C)cc2)c2c(ccc3nc[nH]c32)n1
Rodentolepis nana [1]
  Activity: 100%
Rodentolepis nana [2]
  Activity: 53%
Rodentolepis nana [3]
  Activity: inactive

## CCN(CC)CCOc1ccc(Nc2cc(C)nc3ccc4nc[nH]c4c23)cc1
Rodentolepis nana [4]
  Activity: 100%
Rodentolepis nana [1]
  Activity: inactive

## Cc1cc(Nc2cccc(Nc3ccc(N4CCCCC4)nc3)c2)c2c(ccc3nc[nH]c32)n1
Rodentolepis nana [4]
  Activity: 100%
Rodentolepis nana [1]
  Activity: inactive

## COc1cc(Nc2cc(C)nc3ccc4nc[nH]c4c23)cc(OC)c1OC
Rodentolepis nana [1]
  Activity: 70%
Rodentolepis nana [2]
  Activity: inactive

## CSc1cccc(Nc2cc(C)nc3ccc4nc[nH]c4c23)c1
Rodentolepis nana [1]
  Activity: 100%
Rodentolepis nana [2]
  Activity: inactive

## Cc1cc(Nc2ccc(N3CCCCC3)cc2)c2c(ccc3nc[nH]c32)n1
Rodentolepis nana [1]
  Activity: 64%
Rodentolepis nana [2]
  Activity: 62%
Rodentolepis nana [3]
  Activity: inactive

## Cc1cc(Nc2cccc(C(F)(F)F)c2)c2c(ccc3nc[nH]c32)n1
Rodentolepis nana [4]
  Activity: 100%
Rodentolepis nana [1]
  Activity: inactive

## CCCCc1ccc(Nc2cc(C)nc3ccc4nc[nH]c4c23)cc1Cl
Rodentolepis nana [1]
  Activity: 100%
Rodentolepis nana [2]
  Activity: 100%
Rodentolepis nana [3]
  Activity: 65%

## CCCCCOc1ccc(Nc2cc(C)nc3ccc4nc[nH]c4c23)cc1OCCCCC
Rodentolepis nana [1]
  Activity: 63%
Rodentolepis nana [2]
  Activity: inactive

## CCCC(=O)c1ccc(Nc2cc(C)nc3ccc4nc[nH]c4c23)cc1
Rodentolepis nana [4]
  Activity: 100%
Rodentolepis nana [1]
  Activity: inactive

## CCOc1cc(OCC)c(OCC)cc1Nc1cc(C)nc2ccc3nc[nH]c3c12
Rodentolepis nana [1]
  Activity: 89%
Rodentolepis nana [2]
  Activity: 80%
Rodentolepis nana [3]
  Activity: inactive

## Cc1cc(Nc2ccccc2-c2ccccc2)c2c(ccc3nc[nH]c32)n1
Rodentolepis nana [4]
  Activity: 100%
Rodentolepis nana [1]
  Activity: inactive

## Cc1cc(Nc2ccc(Cl)c(Cl)c2)c2c(ccc3nc[nH]c32)n1
Rodentolepis nana [1]
  Activity: 65%
Rodentolepis nana [2]
  Activity: inactive

## Cc1cc(Nc2ccc(N(C)C)cc2)c2c(ccc3nc[nH]c32)n1
Rodentolepis nana [1]
  Activity: 100%
Rodentolepis nana [2]
  Activity: inactive

## CC(=O)c1cccc(Nc2cc(C)nc3ccc4nc[nH]c4c23)c1
Rodentolepis nana [1]
  Activity: 96%
Rodentolepis nana [2]
  Activity: inactive

## CCC(=O)c1ccc(Nc2cc(C)nc3ccc4nc[nH]c4c23)cc1
Rodentolepis nana [1]
  Activity: 75%
Rodentolepis nana [2]
  Activity: 78%
Rodentolepis nana [3]
  Activity: inactive

## COc1ccc(Nc2cc(-c3ccccc3)nc3ccc4nc[nH]c4c23)cc1
Rodentolepis nana [1]
  Activity: 66%
Rodentolepis nana [2]
  Activity: inactive

## CCOc1ccc(Nc2cc(C)nc3ccc4nc[nH]c4c23)cc1Cl
Rodentolepis nana [1]
  Activity: 100%
Rodentolepis nana [2]
  Activity: 50%
Rodentolepis nana [3]
  Activity: inactive

## Cc1cc(Nc2cccc(Cl)c2C)c2c(ccc3nc[nH]c32)n1
Rodentolepis nana [1]
  Activity: 100%
Rodentolepis nana [2]
  Activity: 94%
Rodentolepis nana [3]
  Activity: inactive

## COc1ccc(Nc2cc(C)nc3ccc4nc[nH]c4c23)cc1OC
Rodentolepis nana [1]
  Activity: 73%
Rodentolepis nana [2]
  Activity: inactive

## Cc1cc(Nc2ccc(N3CCCC3)c(Cl)c2)c2c(ccc3nc[nH]c32)n1
Rodentolepis nana [1]
  Activity: 100%
Rodentolepis nana [2]
  Activity: 46%
Rodentolepis nana [3]
  Activity: inactive

## Cc1cc(Nc2ccc(Cl)c(C(F)(F)F)c2)c2c(ccc3nc[nH]c32)n1
Rodentolepis nana [1]
  Activity: 84%
Rodentolepis nana [2]
  Activity: 87%
Rodentolepis nana [3]
  Activity: inactive

## Cc1cc(Nc2ccccc2)c2c(ccc3nc[nH]c32)n1
Rodentolepis nana [1]
  Activity: 40%

## CCC(C)c1ccc(Nc2cc(C)nc3ccc4nc[nH]c4c23)cc1 (configuration not stated)
Rodentolepis nana [1]
  Activity: 100%
Rodentolepis nana [2]
  Activity: inactive

## CSc1ccccc1Nc1cc(C)nc2ccc3nc[nH]c3c12
Rodentolepis nana [4]
  Activity: 93%
Rodentolepis nana [1]
  Activity: inactive

## Cc1cc(Nc2ccc(N3CCCCC3)c(Cl)c2)c2c(ccc3nc[nH]c32)n1
Rodentolepis nana [1]
  Activity: 100%
Rodentolepis nana [2]
  Activity: 80%
Rodentolepis nana [3]
  Activity: inactive

## Cc1cc(Nc2ccc(/N=N\c3ccccc3)cc2)c2c(ccc3nc[nH]c32)n1
Rodentolepis nana [4]
  Activity: 100%
Rodentolepis nana [1]
  Activity: inactive

## COc1ccc(CNc2cccc(Nc3cc(C)nc4ccc5nc[nH]c5c34)c2)cc1
Rodentolepis nana [4]
  Activity: 60%
Rodentolepis nana [1]
  Activity: inactive

## CCc1ccc(Nc2cc(C)nc3ccc4nc[nH]c4c23)cc1Cl
Rodentolepis nana [1]
  Activity: 100%
Rodentolepis nana [2]
  Activity: 93%
Rodentolepis nana [3]
  Activity: inactive

## CCc1cc(Nc2ccc(OC)cc2)c2c(ccc3nc[nH]c32)n1
Rodentolepis nana [1]
  Activity: 46%
Rodentolepis nana [2]
  Activity: inactive

## CCCCc1ccc(Nc2cc(C)nc3ccc4[nH]cnc4c23)cc1
Rodentolepis nana [4]
  Activity: 100%
Rodentolepis nana [1]
  Activity: inactive

## CCOc1ccc(OCC)c(Nc2cc(C)nc3ccc4nc[nH]c4c23)c1
Rodentolepis nana [1]
  Activity: 100%
Rodentolepis nana [2]
  Activity: 100%
Rodentolepis nana [3]
  Activity: inactive

## COc1ccc(OC)c(Nc2cc(C)nc3ccc4nc[nH]c4c23)c1
Rodentolepis nana [1]
  Activity: 100%
Rodentolepis nana [2]
  Activity: inactive
